“Also recorded” adds a separate entry of the source.
Experiments:
[1] = preliminary animal studies; cited from earlier work
[2] = system: ALD cells (cALD and AMN cells); assay: Basal energy production measured as ATP content in ALD cells; assay type: cell-based, human
Description: (§1) In vitro and in vivo experiments were done to evaluate the ability of nervonic acid to modulate ALD associated biochemistry in various ALD phenotypes including childhood cerebral ALD (cALD) and adrenomyeloneuropathy (AMN). Nervonic acid (NA) was compared to the erucic acid (EA), the active ingredient in Lorenzo's oil. […] Additionally, the potential of NA and EA to alter the basal energy production measured as ATP content in ALD cells was assessed (Terluk et al., Neurotherapeutics 2022 April; 19(3):1007-1017. doi: 10.1007/s13311-022-01226-7). Following a five-day treatment with NA, cellular ATP content was increased in cALD cells (FIG. 6).

ALD double knockout mice = assay: In vivo mouse study, four-week NA or EA diet, fatty acids in plasma and tissues; settings: for C26:0 in tissues, 3% NA group versus 3% EA group: comparison of 3% NA and 3% EA treatment groups
Description: An in vivo ALD double knockout mice model was used to evaluate the effect of NA or EA on various fatty acid concentrations in the tissue of the mice see Example). Mice were fed a diet containing 0.6% NA, 3% NA, or 3% EA for four weeks (FIG. 20). Blood samples taken every week and tissues harvested after four weeks of treatment were analyzed for fatty acid concentration.
Double ALD knockout mice were grown to eight weeks. At eight week the mice were split into four treatment groups. Three of the treatment groups received nervonic acid (NA, 0.6% or 3%) or erucic acid (EA, 3%) through their daily diet. Specifically, mice were fed with rodent chow (TEKLAD Rodent Chow available from Inotiv in West Lafayette, IN) mixed with the desired amount of NA or EA. Food was available continuously and new food was added every other day. Daily food intake was weighed and mouse weighed every week. Blood samples were taken weekly for four weeks. Following four weeks, the mice were sacrificed, and their tissues analyzed for fatty acid content. GCMS was used for lipid fatty acid content analysis and LC-MS/MS was used to analyze Lyso-PC.

[3] = Pharmacokinetics of NA study, single oral dose; assay type: in vivo, mouse; settings: male, ALD gene-knockout (ABCD1-), mouse, in vivo; single oral 10 mg; plasma; NCA
Description: (§2) Pharmacokinetic studies were conducted to determine the key pharmacokinetic parameters of NA in an ALD mouse model and assess alterations in plasma C26:0 levels following single-dose NA administration. The pharmacokinetic parameters of NA were defined for the first time in rodents (FIG. 35-39). […] The concentrations of NA in the brain (FIG. 37) and in the liver (FIG. 38) were determined.
(§3) Pharmacokinetic studies were conducted using 12-week-old male ALD gene-knockout mice (KO; ABCD1-) following a single oral administration of 10 mg of NA. Blood samples were collected from the submandibular vein prior to dosing and at 0.25, 0.5, 1, 2, 6, 18, 24, 30, 48, 72, and 168 hours post-administration. The concentrations of NA in plasma and tissues were analyzed at the Kennedy Krieger Institute using GC/MS. Pharmacokinetic parameters including systemic clearance (CL/F), volumes of distribution (V/F), elimination half-life (ti/2), and the area under the curve (AUC) were estimated using PHOENIX (Certara USA, Radnor, PA) with non-compartmental analysis (NCA).

[4] = system: ALD gene-knockout mice (KO; ABCD1-); assay: Pharmacokinetics of NA study, single oral dose; assay type: in vivo, mouse
Description: as §2, §3

[5] = cited from earlier work
AMN and cALD cells = assay: Fatty acid levels in ALD cells treated with NA or EA; assay type: cell-based, human; settings: 0, 5, 20, 50 μM
Description: as §1

ELOVL1 = target: T1, ELOVL1 (Homo sapiens, UniProt Q9BW60); settings: earlier studies; cited from earlier work
T1 sequence (Q9BW60 1-279): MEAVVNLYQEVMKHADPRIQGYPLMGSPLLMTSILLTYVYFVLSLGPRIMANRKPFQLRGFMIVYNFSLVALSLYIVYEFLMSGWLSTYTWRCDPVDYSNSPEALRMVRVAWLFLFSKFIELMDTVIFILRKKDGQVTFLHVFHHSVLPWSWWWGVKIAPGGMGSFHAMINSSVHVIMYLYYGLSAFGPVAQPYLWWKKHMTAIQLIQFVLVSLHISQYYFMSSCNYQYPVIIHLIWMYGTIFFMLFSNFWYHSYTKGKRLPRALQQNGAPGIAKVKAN

[6] = system: Human dermal AMN fibroblasts (GM17819); assay: Imaging study of oxidative stress (CELLROX, MITOSOX); assay type: cell-based; settings: five days, compared to vehicle and control
Description: A second set of in vitro experiments were conducted to more thoroughly understand the mechanism of action of nervonic acid in the mitochondria of ALD cells. AMN patient derived fibroblasts were treated with various concentrations of NA (5 μM, 20 μM, and 50 μM in ethanol) and evaluated for mitochondrial oxidative stress by evaluating reactive oxygen species (see Example) and mitochondrial respiration (see Example). FIG. 9 and FIG. 11 show images of the NA AMN treated cells stained for reactive oxygen species (green) or mitochondrial superoxide (red) and nuclei (blue; see Imaging Study in Example). FIG. 10 and FIG. 12 show bar graphs quantifying the reactive oxygen species fluorescence of FIG. 9 and the mitochondrial superoxide fluorescence of FIG. 11.
Human dermal fibroblasts (GM17819) were seeded on chamber slides with a density of 12,500 cells per well and incubated at 37° C. At ˜80% confluence, cells were treated with ethanol (vehicle, <0.1%) and NA (5 μM, 20 μM, or 50 μM) for five days. Untreated AMN fibroblasts were considered the control group. […] Cell localization and fluorescence visualization were then completed using a fluorescence microscope (BZ-X810; Keyence, Osaka, Japan). […]

AMN cells = assay: Long chain fatty acid (LCFA) oxidation stress test with UK5099, BPTES, etomoxir; assay type: cell-based, human; settings: 20 μM NA, 24 h, with inhibitors UK, BP, ETO alone or combined
Description: A long chain fatty acid (LCFA) oxidation stress test (SEAHORSE XF assay; Agilent Technologies, Inc., Santa Clara, CA) was used to assess how NA affects mitochondrial respiration when various metabolic pathways of mitochondria are inhibited. Specific inhibitors to block glucose, fatty acid or glutamine pathways were used alone or in combination to understand the substrate specific effects of NA. In this assay the mitochondrial stress test (MST) is repeated with one or more inhibitors of glycolysis, the TCA cycle, electron transport, and oxidative phosphorylation pathways are present. Etomoxir (Eto) is used to inhibit carnitine palmitoyl transferase 1a (CPT1a), an enzyme important in the mechanism for beta oxidation (degradation) of long chain fatty acids. UK5099 (UK) is used to inhibit transport of glucose and/or pyruvate by targeting the mitochondrial pyruvate carrier (MPC). BPTES (BP) is used to inhibit glutaminase GLS1, an enzyme that converts glutamine into glutamate, a substrate for further oxidation in the TCA cycle. AMN cells were incubated with one or more of the inhibitors with or without 20 μM NA and run through the mitochondrial stress test. The results are shown in FIG. 17, FIG. 18, and FIG. 19.

[7] = system: ALD patient-derived fibroblasts; settings: earlier studies; cited from earlier work
AMN cells (GM17819) = assay: Seahorse cell mitochondrial stress test (MST), oxygen consumption rate; assay type: cell-based, human; settings: 5, 20, 50 μM NA, 24 hours
Description: Mitochondrial function was assessed using a cell mitochondrial stress test (MST; see Seahorse study in the Example). As depicted in FIG. 8, in this experiment, inhibitors of various electron transport chain components (oligomycin; FCCP/carbonyl cyanide 4-(trifluoromethoxy)phenylhydrazone; rotenone and antimycin A) are sequentially incubated with cells and the oxygen consumption rate (OCR) measured following each incubation to evaluate various individual parameters of respiration. The OCR of cells that were treated with NA was compared with cells not treated with NA. FIG. 13A-13, FIG. 14A-B, FIG. 15A-B, and FIG. 16A-B are plots showing the results of the respiration test.
Mitochondrial function was assessed on AMN cells (GM17819) using the Cell Mito Stress Test (CMST) in an XFe96 Extracellular Flux Analyzer (Agilent Technologies, Inc., Santa Clara, CA). Cells (1.25×10^4 cells/well) were seeded overnight on Cell-Tak coated XFe96 microplate and then treated with NA (5 μM, 20 μM, or 50 μM) for 24 hours. For the CMST measurements, the culture medium was replaced with XF DMEM medium supplemented with glutamine 4 mM, sodium pyruvate 1 mM, and glucose 24.9 mM, pH 7.4 and 37° C. Oxygen consumption rate (OCR) was detected at baseline and after the following injections: 1) oligomycin (3 μM), 2) carbonyl cyanide 4-(trifluoromethoxy)phenylhydrazone/FCCP (2 μM), and 3) rotenone (1 μM) plus antimycin A (1 μM). This protocol allowed the analysis of the following parameters: basal respiration, ATP production, proton leak, maximal respiration, spare respiratory capacity, non-mito respiration, coupling efficiency percent, and spare respiratory capacity percent. OCR data were normalized by the number of cells determined by using CyQUANT NF Cell Proliferation Assay Kit (Thermo Fisher Scientific, Inc., Waltham, MA) and a fluorescence microplate reader. OCR results were generated by SEAHORSE WAVE PRO (Agilent Technologies, Inc., Santa Clara, CA) and analyzed with the SEAHORSE Analytics software (Agilent Technologies, Inc., Santa Clara, CA).

In the case of CCCCCCCC/C=C\CCCCCCCCCCCC(=O)O [EA, erucic acid, reference compound], the cardiotoxicity [1] is listed as “associated with cardiotoxicity”, the “cellular ATP content (energy production) at 20 μM” value ([2]; 20 μM, compared to vehicle-treated cells, five-day treatment) is listed as “did not show a marked increase” and the “C22:1 amount in brain” value (ALD double knockout mice; 3% EA diet, four weeks) is listed as “did not show an elevation”. For the same compound, the “C22:1 (EA) levels in liver, kidney, heart, and adrenal” value (ALD double knockout mice; compared to control group, 3% EA diet, four weeks) was “significant elevation”, the “C26:0 in tissues, 3% NA group versus 3% EA group” value (ALD double knockout mice) was “no significant difference; also recorded: comparable” and the “C22:1 (EA) level in plasma” value (ALD double knockout mice; only after 4-week treatment with 3% EA) was “significant increase”.

For CCCCCCCC/C=C\CCCCCCCCCCCCCC(=O)O [NA, Nervonic acid], the AUC [3] was 2330 µg·h/mL, the Cmax [3] was 32700 ng/mL and the Tmax [3] was 2 h. For the same compound, the half-life [3] was 62.3 h, the CL/F ([4]; single oral 10 mg, plasma, NCA) was 8.509 mL/h and the Ke ([4]; single oral 10 mg, plasma, NCA) was 0.01113 h⁻¹. The V/F ([4]; single oral 10 mg, plasma, NCA) was 764.7 mL, the “plasma C26:0 LPC” value ([4]; single oral dose 10 mg NA) was “does not significantly affect” and the “plasma C26:0 levels” value ([4]; single oral dose 10 mg NA) was “does not significantly affect”. For the same compound, the “solubility in dimethyl sulfoxide” value ([5]; dimethyl sulfoxide) was “approximately 20 mg/ml”, the solubility in dimethylformamide ([5]; dimethylformamide) was “approximately 20 mg/ml” and the solubility in ethanol ([5]; ethanol) was “approximately 10 mg/ml”. The “amount of C26:0 fatty acid” value (AMN and cALD cells) was “dose-dependent effect on decreasing”, the “inhibition of ELOVL1” value (ELOVL1) was “competitively inhibit” and the “cellular ATP content” value ([2]; cALD cells, five-day treatment) was “increased”. The “cellular ATP content at other concentrations” value ([2]; concentrations other than 20 μM, cALD and AMN cells) was “a trend was observed”, the “mitochondrial superoxide (MITOSOX fluorescence)” value ([6]; 5 μM or 20 μM) was “decrease” and the “reactive oxygen species (CELLROX fluorescence)” value ([6]; 5 μM, 20 μM, or 50 μM) was “decrease”. For the same compound, the “plasma C26:0 Lyso-phosphatidylcholine (C26:0 LPC)” value (ALD double knockout mice; after 4-week treatment, dose-dependent manner) was “significantly reduced”, the “C24:1 levels in liver, kidney, heart, and adrenal gland” value (ALD double knockout mice; compared to control group, NA diet, four weeks) was “significant elevation” and the “C26:0 in tissues, 3% NA group versus 3% EA group” value (ALD double knockout mice) was “no significant difference; also recorded: comparable”. For the same compound, the “plasma C26:0” value (ALD double knockout mice; diet 0.6% or 3% NA) was “dose dependent decrease”, the “NA level in plasma at steady state” value (ALD double knockout mice; following four-week treatment) was “approximately 70 pig/mL” and the “C26:1 levels in plasma” value (ALD double knockout mice; intake of NA) was “significant increase”. For the same compound, the “C26:0 levels in tissues” value (ALD double knockout mice; liver, kidney, brain, heart, adrenal, four weeks) was “decrease”, the acute response (AMN cells) was “No significant change” and the basal respiration (AMN cells) was “No significant change”. For the same compound, the maximal respiration (AMN cells) was “No significant change”, the “accumulation of C26:0” value [7] was “biochemically reverse” and the ATP production (AMN cells (GM17819)) was “increase”. The basal respiration (AMN cells (GM17819)) was “increase”, the maximal respiration (AMN cells (GM17819)) was “increase” and the spare respiratory capacity (AMN cells (GM17819)) was “increase”.

— US20250009698A1, “NERVONIC ACID-BASED COMPOSITIONS AND METHODS” (REGENTS OF THE UNIVERSITY OF MINNESOTA, priority 2023, published 2025)
